From PubChem BioAssay (NCI)
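In this assay, cells in 96-well plates receive the compound at five concentrations for 48 hours. Endpoints are linearly interpolated between the surrounding concentrations. GI50: concentration for 50% inhibition of growth. Definition used: TGI = concentration required for complete inhibition of growth.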

What was measured:
Assay in all cases: growth of human tumour cells (NCI), 48 h
HS 578T breast = system: HS 578T breast
UACC-257 melanoma = system: UACC-257 melanoma
HT29 colon = system: HT29 colon
SK-MEL-28 melanoma = system: SK-MEL-28 melanoma
BT-549 breast = system: BT-549 breast
HL-60(TB) leukemia = system: HL-60(TB) leukemia
NCI-H226 lung = system: NCI-H226 lung
SK-MEL-5 melanoma = system: SK-MEL-5 melanoma
NCI/ADR-RES ovarian = system: NCI/ADR-RES ovarian
LOX IMVI melanoma = system: LOX IMVI melanoma
U251 CNS = system: U251 CNS
OVCAR-4 ovarian = system: OVCAR-4 ovarian
HCT-116 colon = system: HCT-116 colon
SN12C renal = system: SN12C renal
IGROV1 ovarian = system: IGROV1 ovarian
RXF 393 renal = system: RXF 393 renal
SK-MEL-2 melanoma = system: SK-MEL-2 melanoma
SNB-19 CNS = system: SNB-19 CNS
PC-3 prostate = system: PC-3 prostate
UACC-62 melanoma = system: UACC-62 melanoma
TK-10 renal = system: TK-10 renal
MALME-3M melanoma = system: MALME-3M melanoma
SR leukemia = system: SR leukemia
HOP-92 NSCLC = system: HOP-92 NSCLC
A498 renal = system: A498 renal
NCI-H23 lung = system: NCI-H23 lung
OVCAR-5 ovarian = system: OVCAR-5 ovarian
ACHN renal = system: ACHN renal
OVCAR-3 ovarian = system: OVCAR-3 ovarian
MDA-MB-435 = system: MDA-MB-435
RPMI-8226 leukemia = system: RPMI-8226 leukemia
A549 NSCLC = system: A549 NSCLC
786-0 renal = system: 786-0 renal
SW-620 colon = system: SW-620 colon
CCRF-CEM leukemia = system: CCRF-CEM leukemia
OVCAR-8 ovarian = system: OVCAR-8 ovarian
SNB-75 CNS = system: SNB-75 CNS
SF-295 CNS = system: SF-295 CNS
HCC-2998 colon = system: HCC-2998 colon
SF-268 CNS = system: SF-268 CNS
KM12 colon = system: KM12 colon
HCT-15 colon = system: HCT-15 colon
CAKI-1 renal = system: CAKI-1 renal
MOLT-4 leukemia = system: MOLT-4 leukemia
K-562 leukemia = system: K-562 leukemia
SF-539 CNS = system: SF-539 CNS
EKVX NSCLC = system: EKVX NSCLC
COLO 205 colon = system: COLO 205 colon
SK-OV-3 ovarian = system: SK-OV-3 ovarian
MCF7 breast = system: MCF7 breast
T-47D breast = system: T-47D breast
MDA-MB-231 breast = system: MDA-MB-231 breast
UO-31 renal = system: UO-31 renal
HOP-62 NSCLC = system: HOP-62 NSCLC
NCI-H522 lung = system: NCI-H522 lung
DU-145 prostate = system: DU-145 prostate
NCI-H460 lung = system: NCI-H460 lung

In the case of `CCN(CC)CCOc1ccc(C(=C(C)Cc2ccc(OC)cc2)c2ccc(OCCN(CC)CC)cc2)cc1`, the GI50 (HS 578T breast) is reported as 4.34 µM, the TGI (HS 578T breast) is reported as 11.5 µM and the GI50 (UACC-257 melanoma) is reported as 4.62 µM. The TGI (UACC-257 melanoma) was 9.29 µM, the GI50 (HT29 colon) was 2830 nM and the TGI (HT29 colon) was 7.8 µM. For the same molecule, the GI50 (SK-MEL-28 melanoma) was 3.72 µM, the TGI (SK-MEL-28 melanoma) was 7.21 µM and the GI50 (BT-549 breast) was 3.84 µM. For the same molecule, the TGI (BT-549 breast) was 7.48 µM, the GI50 (HL-60(TB) leukemia) was 3.46 µM and the TGI (HL-60(TB) leukemia) was 7.77 µM. It also gave a GI50 (NCI-H226 lung) of 4.37 µM, a TGI (NCI-H226 lung) of 11.3 µM and a GI50 (SK-MEL-5 melanoma) of 4 µM. For the same molecule, the TGI (SK-MEL-5 melanoma) was 7.47 µM, the GI50 (NCI/ADR-RES ovarian) was 4.24 µM and the TGI (NCI/ADR-RES ovarian) was 8.74 µM. It also gave a GI50 (LOX IMVI melanoma) of 3.04 µM, a TGI (LOX IMVI melanoma) of 6.44 µM and a GI50 (U251 CNS) of 3.99 µM. It also gave a TGI (U251 CNS) of 8.34 µM, a GI50 (OVCAR-4 ovarian) of 4.48 µM and a TGI (OVCAR-4 ovarian) of 10.7 µM. For the same molecule, the GI50 (HCT-116 colon) was 2950 nM, the TGI (HCT-116 colon) was 6.51 µM and the GI50 (SN12C renal) was 3.55 µM. It also gave a TGI (SN12C renal) of 7.19 µM, a GI50 (IGROV1 ovarian) of 4.18 µM and a TGI (IGROV1 ovarian) of 8.31 µM. For the same molecule, the GI50 (RXF 393 renal) was 1420 nM, the TGI (RXF 393 renal) was 5.11 µM and the GI50 (SK-MEL-2 melanoma) was 4.8 µM. The TGI (SK-MEL-2 melanoma) was 9.83 µM, the GI50 (SNB-19 CNS) was 4.44 µM and the TGI (SNB-19 CNS) was 8.84 µM. The GI50 (PC-3 prostate) was 3.88 µM, the TGI (PC-3 prostate) was 8.15 µM and the GI50 (UACC-62 melanoma) was 4.59 µM. For the same molecule, the TGI (UACC-62 melanoma) was 8.87 µM, the GI50 (TK-10 renal) was 3.86 µM and the TGI (TK-10 renal) was 8.67 µM. For the same molecule, the GI50 (MALME-3M melanoma) was 6.12 µM, the TGI (MALME-3M melanoma) was 10.5 µM and the GI50 (SR leukemia) was 805 nM. For the same molecule, the TGI (SR leukemia) was 3.1 µM, the GI50 (HOP-92 NSCLC) was 1070 nM and the TGI (HOP-92 NSCLC) was 8.98 µM. The GI50 (A498 renal) was 3.67 µM, the TGI (A498 renal) was 16 µM and the GI50 (NCI-H23 lung) was 4.59 µM. It also gave a TGI (NCI-H23 lung) of 10.5 µM, a GI50 (OVCAR-5 ovarian) of 3.68 µM and a TGI (OVCAR-5 ovarian) of 7.32 µM. The GI50 (ACHN renal) was 4.46 µM, the TGI (ACHN renal) was 8.67 µM and the GI50 (OVCAR-3 ovarian) was 3.2 µM. It also gave a TGI (OVCAR-3 ovarian) of 7.5 µM, a GI50 (MDA-MB-435) of 3.96 µM and a TGI (MDA-MB-435) of 7.48 µM. The GI50 (RPMI-8226 leukemia) was 3.27 µM, the TGI (RPMI-8226 leukemia) was 8.39 µM and the GI50 (A549 NSCLC) was 4.52 µM. For the same molecule, the TGI (A549 NSCLC) was 10.6 µM, the GI50 (786-0 renal) was 3.42 µM and the TGI (786-0 renal) was 7.04 µM. The GI50 (SW-620 colon) was 3.75 µM, the TGI (SW-620 colon) was 7.71 µM and the GI50 (CCRF-CEM leukemia) was 2650 nM. It also gave a TGI (CCRF-CEM leukemia) of 7.2 µM, a GI50 (OVCAR-8 ovarian) of 6.08 µM and a TGI (OVCAR-8 ovarian) of 15.2 µM. For the same molecule, the GI50 (SNB-75 CNS) was 13.4 µM, the TGI (SNB-75 CNS) was 25 µM and the GI50 (SF-295 CNS) was 4.36 µM. It also gave a TGI (SF-295 CNS) of 8.49 µM, a GI50 (HCC-2998 colon) of 3.57 µM and a TGI (HCC-2998 colon) of 6.97 µM. For the same molecule, the GI50 (SF-268 CNS) was 4.22 µM, the TGI (SF-268 CNS) was 9.16 µM and the GI50 (KM12 colon) was 3.66 µM. For the same molecule, the TGI (KM12 colon) was 7.57 µM, the GI50 (HCT-15 colon) was 2650 nM and the TGI (HCT-15 colon) was 6.25 µM. It also gave a GI50 (CAKI-1 renal) of 3.63 µM, a TGI (CAKI-1 renal) of 7.38 µM and a GI50 (MOLT-4 leukemia) of 3.13 µM. It also gave a TGI (MOLT-4 leukemia) of 7.55 µM, a GI50 (K-562 leukemia) of 609 nM and a TGI (K-562 leukemia) of 2080 nM. The GI50 (SF-539 CNS) was 3.7 µM, the TGI (SF-539 CNS) was 7.37 µM and the GI50 (EKVX NSCLC) was 3.84 µM. It also gave a TGI (EKVX NSCLC) of 9.13 µM, a GI50 (COLO 205 colon) of 4.45 µM and a TGI (COLO 205 colon) of 10.3 µM. The GI50 (SK-OV-3 ovarian) was 5.06 µM, the TGI (SK-OV-3 ovarian) was 10.5 µM and the GI50 (MCF7 breast) was 2860 nM. It also gave a TGI (MCF7 breast) of 6.51 µM, a GI50 (T-47D breast) of 4.06 µM and a TGI (T-47D breast) of 10.9 µM. The GI50 (MDA-MB-231 breast) was 3.93 µM, the TGI (MDA-MB-231 breast) was 7.91 µM and the GI50 (UO-31 renal) was 3.42 µM. It also gave a TGI (UO-31 renal) of 6.82 µM, a GI50 (HOP-62 NSCLC) of 4.7 µM and a TGI (HOP-62 NSCLC) of 11.2 µM. It also gave a GI50 (NCI-H522 lung) of 4.56 µM, a TGI (NCI-H522 lung) of 9.86 µM and a GI50 (DU-145 prostate) of 4.59 µM. The TGI (DU-145 prostate) was 10.6 µM, the GI50 (NCI-H460 lung) was 3.92 µM and the TGI (NCI-H460 lung) was 7.8 µM.
